Source: patent US6599506B1, “D-form polypeptide that inhibits the interaction between LFA-1 and ICAM-1” (The University of Kansas, priority 1999, dated 2003)
Read-outs that look alike come from different tables or passages of the source. Blank lines part the entries; values can stand above or below the molecule they belong to. Bridge positions count the residues as written; N and C are the ends. Square brackets hold non-standard residues; d marks the D form. Ends that are not written are not given here. Peptide text beside a SMILES is read from it. Pen = CC(C)(S)[C@H](N)C(=O)O

Columns and labels:
[1] = tested on: human tonsil T cells (responders) with irradiated human mononuclear stimulator cells; T-cell proliferation; type: cell-based; conditions: for inhibitory effect on T-cell proliferation: FIG. 3, tested at 125, 250 and 500 μM; for effectiveness in inhibiting responder T-cell proliferation: FIG. 2, tested at 50, 150, 250, 350, 500 and 750 μM; for Inhibition of T-cell Proliferation (%): peptides at 500 μM
From the text: The one-way MLR has been previously described (Kruisbeek et al., Current Protocols in Immunology, Proliferative Assays for T-Cell Function, '3.12.1-3.12.14 (1991), which is incorporated herein by reference). Specifically, human tonsil T cells were suspended at a concentration of 2−4×10^6 cells/ml in cell culture medium (RPMI), for use as responders. Stimulator cells were human mononuclear cells isolated from first Ficoll separation of peripheral blood (buffy coat) and were suspended at a concentration of 2−4×10^6 cells/ml in cell culture medium (RPMI). The stimulator cells were inactivated before use by treatment with 3,000-5,000 rad of ionizing radiation from γ137Cs source. One hundred μl of each cell suspension were combined in each well of a 96-well plate in the absence or presence of varying concentrations of test polypeptides, as detailed below. Cell proliferation was assessed after 72 hours, by 3H-thymidine addition to each well (1 μCi/well, 67 Ci/mmol) with incubation for six hours. The cells were harvested using a PHD Cell Harvester (Cambridge Technology, Inc., Watertown, Mass.); the incorporated 3H was assessed using a liquid scintillation counter (Packard Instrument, Inc., Donner's Grove, Ill.).
In FIGS. 2 and 3, the Y-axis values are mean percentage ±SE of proliferation of responders. “2s” refers to irradiated buffy coat cells, and “2r” refers to T-lymphocytes derived from tonsil. “2s2r” refers to non-treated, mixed lymphocyte sample, which is the positive control (represented by dashed line). Inhibition of proliferation by anti-CD11a antibody (Pharmingen, anti-human CD11a) was used as a control for inhibition of the LFA-1/ICAM-1 interaction. These polypeptides are derived from the human LFA-1 β (CD18) subunit.

[2] = biological target: intracellular adhesion molecule (ICAM-1; CD54) (UniProt P05362 28-532, limits assumed); experiment: cell-based or functional assay
[3] = linear D-peptides (*3), minus value = peptide activated T-lymphocytes

intracellular adhesion molecule (ICAM-1; CD54), sequence (P05362 28-532 limits assumed): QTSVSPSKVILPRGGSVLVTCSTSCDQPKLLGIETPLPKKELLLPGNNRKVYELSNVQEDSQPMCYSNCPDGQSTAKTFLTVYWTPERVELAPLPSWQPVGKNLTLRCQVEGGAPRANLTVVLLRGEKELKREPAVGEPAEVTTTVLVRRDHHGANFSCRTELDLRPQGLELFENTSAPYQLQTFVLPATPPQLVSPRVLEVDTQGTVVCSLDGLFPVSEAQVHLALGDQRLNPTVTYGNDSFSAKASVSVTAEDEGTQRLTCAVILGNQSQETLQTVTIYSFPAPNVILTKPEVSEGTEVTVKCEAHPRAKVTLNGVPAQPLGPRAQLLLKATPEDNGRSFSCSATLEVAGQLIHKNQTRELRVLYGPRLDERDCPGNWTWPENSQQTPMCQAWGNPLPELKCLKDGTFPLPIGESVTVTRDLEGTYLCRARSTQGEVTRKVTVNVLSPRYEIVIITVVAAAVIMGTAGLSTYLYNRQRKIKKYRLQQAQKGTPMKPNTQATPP

Molecule: CC(C)C[C@@H](NC(=O)[C@H](N)CC(=O)O)C(=O)N[C@H](CO)C(=O)N[C@H](Cc1ccc(O)cc1)C(=O)N[C@H](CO)C(=O)N[C@H](CC(C)C)C(=O)N[C@H](CC(=O)O)C(=O)N[C@H](CC(=O)O)C(=O)N[C@H](CC(C)C)C(=O)N[C@H](CCCNC(=N)N)C(=O)O [D-LBEL, H-DLSYSLDDLR-OH] (H-[dD][dL][dS][dY][dS][dL][dD][dD][dL][dR]-OH)
inhibiting T-cell proliferation in MLR assays [1]: significantly effective | inhibitory effect on T-cell proliferation [1]: amazing inhibitory effect, which was much more effective than either LBE or cLBEL

Molecule: CC(C)C[C@@H]1NC(=O)[C@H](CCCCN)NC(=O)[C@H](CCCCN)NC(=O)[C@H](C(C)C)NC(=O)[C@H](CC(N)=O)NC(=O)[C@H](CCCNC(=N)N)NC(=O)[C@H](CC(C)C)NC(=O)[C@H](CC(=O)O)NC(=O)[C@@H](N)C(C)(C)SSC[C@@H](C(N)=O)NC(=O)CNC(=O)CNC1=O [cLBEC, H-PenDLRNVKKLGGC-NH2] (H-[Pen]DLRNVKKLGGC-NH2; disulfide 1-12)
effectiveness in inhibiting responder T-cell proliferation [1]: more effective than LBE

Molecule: CC(C)C[C@@H]1NC(=O)[C@H](CC(=O)O)NC(=O)[C@H](CC(=O)O)NC(=O)[C@H](CC(C)C)NC(=O)[C@H](CO)NC(=O)[C@H](Cc2ccc(O)cc2)NC(=O)[C@H](CO)NC(=O)[C@H](CC(C)C)NC(=O)[C@H](CC(=O)O)NC(=O)[C@@H](N)C(C)(C)SSC[C@@H](C(N)=O)NC(=O)[C@H](CCCNC(=N)N)NC1=O [cLBEL, H-PenDLSYSLDDLRC-NH2] (H-[Pen]DLSYSLDDLRC-NH2; disulfide 1-12)
effectiveness in inhibiting responder T-cell proliferation [1]: more effective than LBE

Molecule: H-DLRNVKKLGG-H (H-[dD][dL][dR][dN][dV][dK][dK][dL]GG; not fully specified; also: C-terminus written -H) [D-LBEC]
inhibitory effect on T-cell proliferation [1]: did not show any inhibitory effects | Inhibition of T-cell Proliferation (%) [1, 3]: −47.6(*4) %

Molecule: H-GGDLLRALNE-OH (H-GG[dD][dL][dL][dR][dA][dL][dN][dE]-OH) [D-LBER]
inhibitory effect on T-cell proliferation [1]: lost the biological function to inhibit T-cell proliferation | Inhibition of T-cell Proliferation (%) [1, 3]: −90.5(*4) %

Molecule: LBEL: linear L-peptide of Table 2, sequence not printed (DLSYSLDDLR)
Inhibition of T-cell Proliferation (%) ([1]; linear L-peptides (*1), second value of cell 'x/y'): N.D./24.8%

Molecule: H-[dD][dL][dR][dN][dV][dK][dK][dL]GG (not fully specified (C-terminus)) [D-LBEC]
Inhibition of T-cell Proliferation (%) in mixed lymphocyte reaction, peptide at 500 µM [2]: -47.6%

B4: D-LBEL (peptide)
peptide: H-[dD][dL][dS][dY][dS][dL][dD][dD][dL][dR]-OH
SMILES: CC(C)C[C@@H](NC(=O)[C@H](N)CC(=O)O)C(=O)N[C@H](CO)C(=O)N[C@H](Cc1ccc(O)cc1)C(=O)N[C@H](CO)C(=O)N[C@H](CC(C)C)C(=O)N[C@H](CC(=O)O)C(=O)N[C@H](CC(=O)O)C(=O)N[C@H](CC(C)C)C(=O)N[C@H](CCCNC(=N)N)C(=O)O
Inhibition of T-cell Proliferation (%) in mixed lymphocyte reaction, peptide at 500 µM [2]: 56.5%

Results, then the molecule that gave them:

Inhibition of T-cell Proliferation (%) in mixed lymphocyte reaction, peptide at 500 µM [2]: -90.5%
B1: D-LBER (peptide)
peptide: H-GG[dD][dL][dL][dR][dA][dL][dN][dE]-OH
SMILES: CC(C)C[C@@H](NC(=O)[C@@H](C)NC(=O)[C@@H](CCCNC(=N)N)NC(=O)[C@@H](CC(C)C)NC(=O)[C@@H](CC(C)C)NC(=O)[C@@H](CC(=O)O)NC(=O)CNC(=O)CN)C(=O)N[C@H](CC(N)=O)C(=O)N[C@H](CCC(=O)O)C(=O)O

Inhibition of T-cell Proliferation (%) in mixed lymphocyte reaction, peptide at 500 µM [2]: 18%
B2: cLBEC (peptide)
peptide: H-[Pen]DLRNVKKLGGC-NH2
modifications: disulfide 1-12
SMILES: CC(C)C[C@@H]1NC(=O)[C@H](CCCCN)NC(=O)[C@H](CCCCN)NC(=O)[C@H](C(C)C)NC(=O)[C@H](CC(N)=O)NC(=O)[C@H](CCCNC(=N)N)NC(=O)[C@H](CC(C)C)NC(=O)[C@H](CC(=O)O)NC(=O)[C@@H](N)C(C)(C)SSC[C@@H](C(N)=O)NC(=O)CNC(=O)CNC1=O

Inhibition of T-cell Proliferation (%) in mixed lymphocyte reaction, peptide at 500 µM [2]: 18%
B3: cLBEL (peptide)
peptide: H-[Pen]DLSYSLDDLRC-NH2
modifications: disulfide 1-12
SMILES: CC(C)C[C@@H]1NC(=O)[C@H](CC(=O)O)NC(=O)[C@H](CC(=O)O)NC(=O)[C@H](CC(C)C)NC(=O)[C@H](CO)NC(=O)[C@H](Cc2ccc(O)cc2)NC(=O)[C@H](CO)NC(=O)[C@H](CC(C)C)NC(=O)[C@H](CC(=O)O)NC(=O)[C@@H](N)C(C)(C)SSC[C@@H](C(N)=O)NC(=O)[C@H](CCCNC(=N)N)NC1=O

Inhibition of T-cell Proliferation (%) in mixed lymphocyte reaction, peptide at 500 µM [2]: 24.8%
Molecule: DLSYSLDDLR [LBEL (linear L-peptide)]
